Results as given in paper PMC6268995, “(E)-5-Styryl-1H-indole and (E)-6-Styrylquinoline Derivatives Serve as Probes for β-Amyloid Plaques” (Molecules, 2012).
Entries after “also recorded” stand apart in the source; their conditions may differ. Like-named read-outs stand apart in the source and are kept apart here.

Experiments:
Aβ1–40 aggregates [1] = target: T1, Aβ1–40 aggregates (Homo sapiens, UniProt P05067); design: method as in PMID 11384236; conditions: literature value ref 21; cited from earlier work
T1 construct: β-amyloid(1–40) were purchased from AnaSpec; purchased AnaSpec (San Jose, CA, USA)

Aβ1–40 aggregates [2] = target: T1, Aβ1–40 aggregates; test: Competition binding assay on Aβ1–40 aggregates using [125I]TZDM as radio-ligand; conditions: Aβ1–40 aggregates against [125I]TZDM; triplicate, mean ± SD
Description: The lyophilized white powder of β-amyloid(1–40) were purchased from AnaSpec (San Jose, CA, USA). After reconstituted by adding basic buffer (1% NH4OH. 60–70 μL) to β-amyloid (1–40) (1 mg) aggregation of Aβ1–40 was carried out by gently dissolving Aβ1–40 (0.25 mg/mL) in a PBS buffer (pH 7.4). The solution was incubated at 37 °C for 72 h with gentle and constant shaking. Binding studies were carried out according to the procedure described previously with some modifications using [^125I]TZDM as the radiolabeled standard. […] The mixture was incubated at 37 °C for 2 h. […] Filters containing the bound ^125I ligand were counted in a γ-counter (WALLAC Wizard 1470, PerkinElmer Life Sciences, Waltham, MA, USA) with 75% counting efﬁciency. The IC50 values were determined using GraphPad Prism 5.0, and those for the inhibition constant (Ki) were calculated using the Cheng Prusoff equation: Ki = IC50/(1 + [L]/Kd).

Aβ plaques = Aβ plaques (Homo sapiens, UniProt P05067); test: In vitro labeling of brain sections from transgenic mouse by autoradiography; type: binding, transgenic model mouse (APP/PS1); conditions: APP/PS1, 12 months, male
Description: The brain sections mentioned above were incubated with [^125I]8 (5 µCi/100µL) for about 20 min at room temperature. Then the sections were washed with saturated Li2CO3 in 40% EtOH for 3 min and 40% EtOH for 3 min, followed by rinsing with water for 30 s. After drying, the ^125I-labeled sections were exposed to phosphorus ﬁlm for 8 h and then scanned with the phosphor imaging system (Cyclone, Packard) at the resolution of 600 dpi. The presence and localization of plaques were confirmed by the ﬂuorescent staining with thioﬂavin-S on the same sections using a Stereo Discovery V12 (Zeiss) instrument equipped with a LP 505 filter set (excitation: 405 nm).

[3] = Partition coefficient determination (n-octanol/PBS); type: physicochemical; conditions: n-octanol / PBS 0.02 M, pH 7.4
Description: The determination of partition coefﬁcients of [^125I]8 and [^125I]17 was performed according to the procedure previously reported with some modifications. Ligand [^125I]8 or [^125I]17 (~5 μCi) was mixed with 3 mL each of n-octanol and PBS (0.02 M, pH 7.4) in a test tube. The test tube was vortexed for 5 min at room temperature, followed by centrifugation for 10 min at 3,000 rpm. Two weighed samples from the n-octanol (50 µL) and buffer layers (400 µL) were counted in a γ-counter. The partition coefﬁcient was expressed as the logarithm of the ratio of the counts per gram from n-octanol versus that of PBS. Samples from the n-octanol layer were repartitioned until consistent partition coefﬁcient values were obtained. The measurements were done in triplicate and repeated three times.

[4] = In vivo biodistribution in normal mice; design: species or system KunMing normal mice; conditions: for Biodistribution Blood / Biodistribution Brain / Biodistribution Heart / Biodistribution Kidney / Biodistribution Liver / Biodistribution Lung / Biodistribution Muscle / Biodistribution Spleen / Biodistribution Stomach: iv injection
Description: In vivo biodistribution studies were performed in KunMing normal mice (female, average weight 18–22 g) and in accordance with the national laws related to the care and experiments on laboratory animal. A saline solution (100 µL) containing [^125I]8 or [^125I]17 (1 µCi) was injected directly into the tail vein of mice. The mice (n = 5 for each time point) were sacriﬁced at designated time points post-injection. The organs of interest were removed and weighed, and the radioactivity was counted with an automatic γ-counter (WALLAC Wizard 1470).

Aβ plaques, sequence (P05067 672-711 limits assumed): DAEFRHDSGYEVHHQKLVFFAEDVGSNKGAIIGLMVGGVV
T1 sequence (P05067 672-711 limits assumed): as above

CN(C)c1ccc(-c2nc3ccc(I)cc3s2)cc1 [TZDM, reference compound]
Ki (Aβ1–40 aggregates [1]): 0.9 ± 0.2 nM
Ki (Aβ1–40 aggregates [2]): 4.2 ± 0.4 nM

[125I]c1ccc(/C=C/c2ccc3[nH]ccc3c2)cc1 [[^125I]8]
Autoradiography labeling of Aβ plaques (Aβ plaques): intense and specific labeling of Aβ plaques; also recorded: excellent labeling of Aβ plaques in the cortex region; also recorded: clearly labeled amyloid plaques in the cortex region
logD [3]: 2.52
brain2min/brain60min ratio ([4]; index of washout rate from normal brain): 15.3
Biodistribution Blood ([4]; 2 min): 11.91 ± 0.62 % ID/g
Biodistribution Brain ([4]; 2 min): 4.27 ± 0.49 % ID/g
Biodistribution Heart ([4]; 2 min): 5.76 ± 0.38 % ID/g
Biodistribution Kidney ([4]; 2 min): 11.66 ± 1.52 % ID/g
Biodistribution Liver ([4]; 2 min): 14.73 ± 0.66 % ID/g
Biodistribution Lung ([4]; 2 min): 10.76 ± 0.63 % ID/g
Biodistribution Muscle ([4]; 2 min): 2.64 ± 0.40 % ID/g
Biodistribution Spleen ([4]; 2 min): 4.38 ± 0.33 % ID/g
Biodistribution Stomach ([4]; 2 min): 1.23 ± 0.56 % ID/organ
Biodistribution Blood ([4]; 15 min): 12.29 ± 1.30 % ID/g
Biodistribution Brain ([4]; 15 min): 1.37 ± 0.16 % ID/g
Biodistribution Heart ([4]; 15 min): 3.70 ± 0.40 % ID/g
Biodistribution Kidney ([4]; 15 min): 14.89 ± 4.23 % ID/g
Biodistribution Liver ([4]; 15 min): 10.66 ± 0.31 % ID/g
Biodistribution Lung ([4]; 15 min): 8.22 ± 0.88 % ID/g
Biodistribution Muscle ([4]; 15 min): 2.01 ± 0.24 % ID/g
Biodistribution Spleen ([4]; 15 min): 4.21 ± 0.26 % ID/g
Biodistribution Stomach ([4]; 15 min): 4.82 ± 0.46 % ID/organ
Biodistribution Blood ([4]; 30 min): 7.64 ± 0.62 % ID/g
Biodistribution Brain ([4]; 30 min): 0.64 ± 0.11 % ID/g
Biodistribution Heart ([4]; 30 min): 2.55 ± 0.52 % ID/g
Biodistribution Kidney ([4]; 30 min): 9.46 ± 1.95 % ID/g
Biodistribution Liver ([4]; 30 min): 7.14 ± 1.13 % ID/g
Biodistribution Lung ([4]; 30 min): 5.39 ± 0.83 % ID/g
Biodistribution Muscle ([4]; 30 min): 1.25 ± 0.04 % ID/g
Biodistribution Spleen ([4]; 30 min): 3.44 ± 0.21 % ID/g
Biodistribution Stomach ([4]; 30 min): 3.50 ± 0.19 % ID/organ
Biodistribution Blood ([4]; 60 min): 4.49 ± 0.28 % ID/g
Biodistribution Brain ([4]; 60 min): 0.28 ± 0.06 % ID/g
Biodistribution Heart ([4]; 60 min): 1.59 ± 0.28 % ID/g
Biodistribution Kidney ([4]; 60 min): 4.65 ± 0.98 % ID/g
Biodistribution Liver ([4]; 60 min): 4.45 ± 0.23 % ID/g
Biodistribution Lung ([4]; 60 min): 3.28 ± 0.10 % ID/g
Biodistribution Muscle ([4]; 60 min): 0.81 ± 0.12 % ID/g
Biodistribution Spleen ([4]; 60 min): 2.44 ± 0.12 % ID/g
Biodistribution Stomach ([4]; 60 min): 1.72 ± 0.21 % ID/organ
Biodistribution Blood ([4]; 120 min): 2.93 ± 0.30 % ID/g
Biodistribution Brain ([4]; 120 min): 0.20 ± 0.08 % ID/g
Biodistribution Heart ([4]; 120 min): 1.47 ± 0.48 % ID/g
Biodistribution Kidney ([4]; 120 min): 1.93 ± 0.76 % ID/g
Biodistribution Liver ([4]; 120 min): 4.19 ± 0.61 % ID/g
Biodistribution Lung ([4]; 120 min): 2.30 ± 0.20 % ID/g
Biodistribution Muscle ([4]; 120 min): 0.61 ±0.24 % ID/g
Biodistribution Spleen ([4]; 120 min): 1.87 ± 0.28 % ID/g
Biodistribution Stomach ([4]; 120 min): 3.48 ± 0.79 % ID/organ
Biodistribution Blood ([4]; 240 min): 1.50 ± 0.13 % ID/g
Biodistribution Brain ([4]; 240 min): 0.10 ± 0.02 % ID/g
Biodistribution Heart ([4]; 240 min): 0.65 ± 0.16 % ID/g
Biodistribution Kidney ([4]; 240 min): 1.34 ± 0.36 % ID/g
Biodistribution Liver ([4]; 240 min): 3.06 ± 0.36 % ID/g
Biodistribution Lung ([4]; 240 min): 1.43 ± 0.52 % ID/g
Biodistribution Muscle ([4]; 240 min): 0.35 ± 0.09 % ID/g
Biodistribution Spleen ([4]; 240 min): 1.37 ± 0.09 % ID/g
Biodistribution Stomach ([4]; 240 min): 2.31 ± 1.44 % ID/organ
